Measurements from patent publication US7998940B2, “Aptamers to von Willebrand factor and their use as thrombotic disease therapeutics” (Archemix Corp., priority 2004, dated 2011).
Oligonucleotides are written 5' to 3', each unit as a sugar letter and its base; * is a phosphorothioate linkage, no mark a phosphodiester; rarer units and linkages stand in square brackets, end groups in braces. Plain capitals give the bases only. [invdT] = inverted (3'-3') thymidine; d = 2'-deoxy (DNA); m = 2'-O-methyl

System: full length human vWF (SEQ ID NO 7)
Experiment: dot blot KD determination and extent of binding, full length human vWF;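 note: dot blot binding of aptamers to full length human vWF across a protein titration, incubated 30 minutes at room temperature in 1x DPBS with BSA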
Conditions: Phase 2 modification; for % binding @ 100 nM vWF: extent of aptamer binding at 100 nM full length human vWF; for Kd: full length human vWF, read-out: KD

Row | Substance | % binding @ 100 nM vWF | Kd
1 | mGmGmCmGmUdG-s-dCdAmGmUmGmCmCmUmUmCmGmGmC-s-dCmGTmGdCdG-s-dGTmGmCdCmUdC-s-dCmGmUmCmAmCmGmCmC-3T (mGmGmCmGmUdG*dCdAmGmUmGmCmCmUmUmCmGmGmC*dCmGdTmGdCdG*dGdTmGmCdCmUdC*dCmGmUmCmAmCmGmCmC[invdT]) [ARC1343] | 21% | 0.0239 µM
2 | mGmGmCmGmUdGdCdAdGTdGdCdCTTdCdGdGdCdCdGTdGdCdGdGTdGdCdCTdCdCdGTdCmAmCmGmCmC-3T (mGmGmCmGmUdGdCdAdGdTdGdCdCdTdTdCdGdGdCdCdGdTdGdCdGdGdTdGdCdCdTdCdCdGdTdCmAmCmGmCmC[invdT]; aptamer) [ARC1338] | 21% | 0.0074 µM
3 | mGmGmCmGmUdGdCdAmGmUmGmCmCmUmUmCmGmGmCdCdGTdGdCdGdGTdGdCdCTdCdCdGTdCmAmCmGmCmC-3T (mGmGmCmGmUdGdCdAmGmUmGmCmCmUmUmCmGmGmCdCdGdTdGdCdGdGdTdGdCdCdTdCdCdGdTdCmAmCmGmCmC[invdT]; aptamer) [ARC1341] | 26% | 0.0225 µM
4 | mGmGmCmGmUdGdCdAmGmUmGmCmCmUmUmCmGmGmCdCmGTmGdCdGdGTmGmCdCmUdCdCmGmUmCmAmCmGmCmC-3T (mGmGmCmGmUdGdCdAmGmUmGmCmCmUmUmCmGmGmCdCmGdTmGdCdGdGdTmGmCdCmUdCdCmGmUmCmAmCmGmCmC[invdT]; aptamer) [ARC1342] | 33% | 0.0156 µM
